In PMC12040169 (PLOS Biology, 2025):

Assay: in vitro
Details: human, hela cells, % viability

| Structure (SMILES) | viability at 28.5 h, 10 µM [%] |
| --- | --- |
| O=C(O)C1CCN(C(=O)[C@@H]2Cc3ccccc3CN2)CC1 [CBK286638] | 91 |
| COc1ccc(/C=C/C(=O)C2CC2)c(C(=O)O)c1OC [CBK286639] | 97 |
| Cc1ccc(C2C(C(=O)c3ccccc3)=C(O)C(=O)N2CCC(=O)O)cc1 (centres unmarked) [CBK286642] | 81.1 |
| O=C(O)C(c1c[nH]c2ccccc12)N1CCN(S(=O)(=O)c2ccccc2)CC1 (centres unmarked) [CBK286643] | 83.6 |
| O=C(O)CNC(=O)Cn1ccc2ccc(OCc3ccccc3)cc21 [CBK286644] | 85.9 |
| CC(=O)N1CCN(C(C(=O)O)c2cn(Cc3ccccc3)c3ccc(C(=O)O)cc23)CC1 (centres unmarked) [CBK286648] | 79.6 |
| CC(SC1CCc2ccccc2NC1=O)C(=O)O (centres unmarked) [CBK286652] | 87.1 |
| Cc1ccc(C2=NO[C@@](CC(=O)O)(C(=O)Nc3ccc4c(c3)OCCO4)C2)cc1 [CBK286653] | 85.1 |
| O=C(CCNC(Cc1ccccc1)C(=O)O)c1ccccc1 (centres unmarked) [CBK286655] | 83 |
| O=C(O)[C@@H]1CCCN1C(=O)C1CCC(Cn2nnc3ccccc3c2=O)CC1 (some centres unmarked) [CBK286658] | 88.6 |
| CC(C)C1C(=O)Nc2ccccc2N1C(=O)NCCC(=O)O (centres unmarked) [CBK286659] | 87.4 |
| O=C(O)CSc1nc2nc3c(cc2c(=O)n1Cc1ccccc1)CCCC3 [CBK286662] | 86.4 |
| O=C(O)CNC(=O)Cn1ccc2cc(OCc3ccccc3)ccc21 [CBK286665] | 81.2 |
| COCCNC(=O)N[C@H](Cc1ccccc1)C(=O)O [CBK286667] | 85.5 |
| CC(C)[C@H](NC(=O)C1CC(=O)N(c2ccc(F)cc2)C1)C(=O)N1CCC(C(=O)O)CC1 (some centres unmarked) [CBK286669] | 94.8 |
| COc1ccc(OC)c(C2=NO[C@@](CC(=O)O)(C(=O)NC3CCCCC3)C2)c1 [CBK286672] | 92.1 |
| O=C(O)C(c1c[nH]c2cc(F)ccc12)N1CCN(c2ccccc2)CC1 (centres unmarked) [CBK286675] | 102 |
| O=C1CC(c2ccc(C(=O)O)cc2)c2c(-c3ccc(Cl)cc3)n[nH]c2N1 (centres unmarked) [CBK286684] | 97 |
| O=C(O)c1[nH]c(=O)[nH]c(=O)c1CN1CCCCC1 [CBK286688] | 96.8 |
| CC(C)(C)OC(=O)N1CCC(C(=O)NC[C@H](CC(=O)O)c2ccc(Cl)cc2)CC1 [CBK286691] | 98 |
| Cc1c(C(=O)O)sc2ncn(CCCOc3ccc(Cl)cc3)c(=O)c12 [CBK286695] | 106 |
| COc1ccc(-c2cc(=O)oc3cc(OC(C)C(=O)O)ccc23)cc1 (centres unmarked) [CBK286696] | 105 |
| Cc1oc2cc(OCC(=O)NCC(=O)O)ccc2c(=O)c1-c1ccc(Cl)cc1 [CBK286697] | 99.6 |
| Cc1nn2c(O)c(CCO)c(C(=O)O)nc2c1-c1ccc(Cl)cc1 [CBK286699] | 108 |
| CC(C)Cc1ccc(C(CC(=O)O)C(=O)O)cc1 (centres unmarked) [CBK286703] | 109 |
| O=C(O)Cn1cc(C(=O)COc2ccccc2)c2ccccc21 [CBK286708] | 85.4 |

| Structure (SMILES) | viability at 28.5 h, 10 µM [%] |
| --- | --- |
| C[C@@H](NC(=O)CCN1C(=O)[C@@H]2Cc3ccccc3CN2C1=O)C(=O)O [CBK286709] | 93.7 |
| Cc1ccc2c(CC(=O)N3CCC(C(=O)O)CC3)coc2c1 [CBK286711] | 79.9 |
| CC(=O)C1=C(O)C(=O)N(CC(=O)O)C1c1ccc(Br)cc1 (centres unmarked) [CBK286712] | 89.9 |
| Cc1cccc(C)c1NC(=O)CC(CN1CCN(Cc2c(C)noc2C)CC1)C(=O)O (centres unmarked) [CBK286715] | 89.8 |
| CCc1c(Cc2[nH]c(C)c(C(C)=O)c2C)[nH]c(C(=O)O)c1C [CBK286717] | 91.3 |
| CCC(C)C(NC(=O)Cc1c[nH]c2ccccc12)C(=O)O (centres unmarked) [CBK286720] | 91 |
| COc1ccccc1CNC(=O)N[C@@H](CC(C)C)C(=O)O [CBK286722] | 92.9 |
| COc1ccc(C(CNC(=O)C(=O)Nc2ccc(C(=O)O)cc2)N(C)C)cc1 (centres unmarked) [CBK286724] | 119 |
| CCC(C)[C@H](NC(=O)N1CCN(C(=O)c2cc3ccccc3[nH]2)CC1)C(=O)O (some centres unmarked) [CBK286725] | 91 |
| O=C(O)c1ccc(CNC2CC(=O)N(c3ccc(F)cc3)C2=O)cc1 (centres unmarked) [CBK286727] | 95.3 |
| COc1cc(/C=C/C(=O)NCc2ccc(C(=O)O)cc2)ccc1O [CBK286728] | 86.4 |
| CN1C(=O)NC(c2ccc(Br)cc2)C2=C1CN(c1cccc(C(=O)O)c1)C2=O (centres unmarked) [CBK286729] | 84.3 |
| C[C@H](NC(=O)C1CCN(C(=O)OC(C)(C)C)CC1)C(=O)O [CBK286730] | 78.9 |
| O=C(O)C[C@]1(C(=O)NC2CCCCCC2)CC(/C=C/c2ccccc2)=NO1 [CBK286732] | 75.9 |
| COc1cccc(NC(=O)CC(CN2CCN(Cc3ccccn3)CC2)C(=O)O)c1 (centres unmarked) [CBK286735] | 85.1 |
| COc1cc2c(cc1OC)C(c1ccc(C(=O)O)cc1)NCC2 (centres unmarked) [CBK286738] | 90.2 |
| O=C(O)C(c1c[nH]c2ccccc12)N1CCOCC1 (centres unmarked) [CBK286739] | 83.8 |
| CC(C)C[C@H](NC(=O)OC(C)(C)C)C(=O)N1CCC(C(=O)O)CC1 [CBK286742] | 80.6 |
| CSCC[C@H](NC(=O)Nc1ccc(N2CCC(C)CC2)cc1)C(=O)O [CBK286743] | 86 |
| CN1CCN(CC(CC(=O)Nc2ccccc2)C(=O)O)CC1 (centres unmarked) [CBK286746] | 81.8 |
| O=C(O)/C=C/C(=O)N1N=C(c2ccc(F)cc2)CC12C(=O)Nc1ccccc12 (centres unmarked) [CBK286747] | 88.9 |
| Cc1ccc(Oc2ccc(S(=O)(=O)N3CCOCC3)cc2C(=O)O)cc1 [CBK286748] | 90.4 |
| C[C@H](NC(=O)N1CCN(C(=O)CCCc2c[nH]c3ccccc23)CC1)C(=O)O [CBK286749] | 88 |
| CC(C)C[C@H](NC(=O)OC(C)(C)C)C(=O)NC[C@H]1CC[C@H](C(=O)O)CC1 [CBK286750] | 85.9 |
| COc1cc2oc(=O)c(CC(=O)N3CCCC(C(=O)O)C3)c(C)c2cc1Cl (centres unmarked) [CBK286754] | 107 |
| CC(C)COc1ccc(C(CC(=O)O)C(=O)O)cc1 (centres unmarked) [CBK286759] | 103 |

| Structure (SMILES) | viability at 28.5 h, 10 µM [%] |
| --- | --- |
| CC1(C)SC2c3ccccc3C(=O)N2[C@@H]1C(=O)N1CCC(C(=O)O)CC1 (some centres unmarked) [CBK286760] | 89.4 |
| CC(C)(C)OC(=O)N1Cc2ccccc2C[C@H]1C(=O)N1CCC(C(=O)O)CC1 [CBK286761] | 94.1 |
| Cc1c(CCC(=O)N2CCCC(C(=O)O)C2)c(=O)oc2c(C)c(O)ccc12 (centres unmarked) [CBK286764] | 88.5 |
| O=C(O)[C@@H]1CCCN1C(=O)CCn1nnc2ccccc2c1=O [CBK286765] | 83.6 |
| CCC(CCC(=O)Nc1ccccc1Cl)C(=O)O (centres unmarked) [CBK286767] | 86.8 |
| CC(=O)NCC12CC3CC(C1)CC(C(=O)O)(C3)C2 [CBK286768] | 93.8 |
| COc1ccc(-c2ccc(=O)n(CC(=O)NC(C(=O)O)c3ccccc3)n2)c(F)c1 (centres unmarked) [CBK286769] | 97.3 |
| CC(C)[C@H](NC(=O)c1cc2cc(Cl)ccc2n1C)C(=O)N1CCC(C(=O)O)CC1 [CBK286771] | 107 |
| C[C@H](NC(=O)N1CCN(C(=O)CCc2c[nH]c3ccccc23)CC1)C(=O)O [CBK286774] | 97.7 |
| COc1ccc(-c2ccc(=O)n(CC(=O)NCc3ccc(C(=O)O)cc3)n2)c(F)c1 [CBK286776] | 91.5 |
| CSCC[C@H](NC(=O)c1cccc2c1-c1ccccc1C2=O)C(=O)O [CBK286781] | 95.5 |
| CN(C(=O)[C@H]1CCCC[C@H]1C(=O)O)C1CCS(=O)(=O)C1 (some centres unmarked) [CBK286782] | 106 |
| CN(C)CCCn1c(=O)n(CC(=O)O)c(=O)c2c3c(sc21)CCC3 [CBK286783] | 110 |
| CC(=O)C1=C(O)C(=O)N(CCCC(=O)O)C1c1ccc(Br)cc1 (centres unmarked) [CBK286784] | 115 |
| CC(C)(C)OC(=O)N1CCN(C(=O)N[C@@H](Cc2ccccc2)C(=O)O)CC1 [CBK286785] | 113 |
| O=C(CC(CN1CCCCC1)C(=O)O)Nc1cccc(O)c1 (centres unmarked) [CBK286788] | 114 |
| O=C(CC(CN1CCN(CCO)CC1)C(=O)O)Nc1ccccc1F (centres unmarked) [CBK286790] | 86 |
| O=C(O)c1ccc(N2CC(C(=O)Nc3ccc(F)cc3)CC2=O)cc1 (centres unmarked) [CBK286794] | 85.3 |
| CC1(C)CCCC2=C1CC(C(=O)O)C(C(=O)NCc1cccnc1)C2 (centres unmarked) [CBK286795] | 83.3 |
| CCCCC(NS(=O)(=O)Cc1ccccc1)C(=O)O (centres unmarked) [CBK286798] | 91.1 |
| Cc1ccc(CN(C(=O)/C=C/C(=O)O)C(C)(C)C)cc1 [CBK286799] | 91.5 |
| O=C(CC(CN1CCN(Cc2ccccn2)CC1)C(=O)O)Nc1ccc(F)cc1 (centres unmarked) [CBK286800] | 86.8 |
| COc1cccc(NC(=O)CC(CN2CCN(CCC#N)CC2)C(=O)O)c1 (centres unmarked) [CBK286801] | 86.1 |
| CC(=O)N1CCN(c2ccccc2NC(=O)Cc2ccccc2C(=O)O)CC1 [CBK286802] | 87.6 |
| Cn1c(=O)c2c(nc(N3CCN(c4cccc(Cl)c4)CC3)n2CC(=O)O)n(C)c1=O [CBK286803] | 87.7 |
